The subject of series [1] is fli1:EGFP zebrafish embryos (intersegmental vessel growth). The series can be described thus: fli1:EGFP zebrafish embryo angiogenesis assay. The series is classed as in vivo. Further details: fli1:EGFP angiogenesis n (survived/tested): concentration or dose not given beside the values. The note with it: for minimal effective concentration: Danio rerio, lowest concentration producing an effect, compounds not producing an effect shown at the highest evaluated concentration; for fli1:EGFP angiogenesis n (survived/tested): embryos alive after 24 hours of exposure. From the text:
(§1) Zebrafish embryology: The use of zebrafish embryo (Danio rerio) bioassays as a preclinical model in the classification of novel compounds has increased in recent years due to several factors including; low cost, ease of maintenance, speed of embryonic development, transparency of the embryos and genetic conservation between zebrafish and humans (Howe et al., Nature 2013; 496:498; Therapontos et al., PNAS 2009, 106:8573; Mahony et al., PNAS 2013, 110:12703; Beedie et al., Oncotarget 2016, 7(22):33237; Beedie et al., Mol. Cancer Ther. 2015, 14(10):2228). Two established zebrafish reporter lines were used—the fli1:EGFP line, where the fli1 promoter drives expression of enhanced green fluorescent protein within the developing vasculature (Lawson et al., 2002), and the Tg(mpo::EGFP) line (also known as mpo:GFP), which expresses green fluorescent protein via the neutrophil specific myeloperoxidase promoter (Renshaw et al., Blood 2006, 108:3976). The use of these zebrafish transgenic reporter lines allows for the identification of potential anti-angiogenic and anti-inflammatory compounds respectively, and both have been used previously to successfully classify the action of thalidomide analogs (Therapontos et al., 2009; Mahony et al., 2013; Beedie et al., Oncotarget 2016, 7(22):33237; Beedie et al., Mol. Cancer Ther. 2015, 14(10):2228). Zebrafish embryos were treated with analogs as previously described (Mahony et al., 2013). Briefly, fli1:EGFP embryos were collected and embryos were allowed to develop for 24 hours. Embryos were dechorionated manually and exposed to test compounds or vehicle control for a further 24 hours, imaged and analyzed for intersegmental vessel (ISV) growth. At 24 hours post fertilisation (hpf) the ISVs were ideal to study to visualize and analyze the actions of compounds on angiogenesis. At this time point ISVs were rapidly forming beneath the developing head, over the body and had yet to form in the tail (Lawson and Weinstein, Developmental Biology 2002, 248:307; Therapontos and Vargesson, Developmental Dynamics 2010, 239:2761). Additionally, these sprouts would go on to form the bilateral dorsal longitudinal anastomotic vessels. By treating before this fusion and formation occurs, the effect of each compound on the individual vessels as well as overall patterning structural integrity (Isogai et al., Development 2003, 130:5281) could be determined. Tg(mpo::EGFP) were tail fin clipped as previously detailed (Renshaw et al., 2006; Mahony et al., 2013; Beedie et al., Oncotarget 2016, 7(22):33237; Beedie et al., Mol. Cancer Ther. 2015, 14(10):2228) and incubated with test compounds or vehicle control at 72 hours post fertilization. Fish were imaged at 24 hours and the number of migratory neutrophils present at the wound site were counted. Compounds inducing an at least 50% reduction of neutrophils to the wound site were considered to have anti-inflammatory properties in this system. All larvae were assessed for viability and morphological integrity.
To determine if the thalidomide analogs had any effect on angiogenesis, fli1:EGFP embryos (Lawson and Weinstein, Developmental Biology 2002, 248:307-318) were exposed to either vehicle or a compound of interest, over a range of concentrations and over a range of time points starting at 24 hpf. Images were obtained at three time points over 24 hours after exposure to the compounds. The best concentration and time point were selected. CPS49, a compound that is chemically and structurally similar to thalidomide breakdown products, and is tetrafluorinated (which adds stability and bioactivity to the compound) and that causes severe limb defects in chicken embryos, was used as a positive control. The embryos were imaged at 48 hpf (FIGS. 3A3L) and analyzed for both vessel formation and the extent of growth of the vasculature. […]

The test system of series [2] is mpo:GFP zebrafish embryos (neutrophil migration to the wound site). The series can be described thus: mpo:GFP zebrafish fin-clip neutrophil migration (inflammation) assay. The following applies: for minimal effective concentration: Danio rerio, Neutrophil, lowest concentration producing an effect, compounds not producing an effect shown at the highest evaluated concentration; for mpo:GFP inflammation n (survived/tested): embryos survived/tested at the concentration given. The arrangement: mpo:GFP inflammation n (survived/tested): concentration or dose not given beside the values. The series is classed as in vivo.
Source text: as §1
To assess the immunomodulatory effects of the thalidomide analogs, the mpo:gfp transgenic zebrafish line (Renshaw et al., Blood 2006, 108:3976-3978) was utilized because it is an accepted model of inflammation, and can be used to test the effect of anti-inflammatory agents. These embryos express GFP-tagged myeloperoxidase, where green fluorescence marks the neutrophil cells involved in the inflammatory response process, for example following injury, from 72 hours post fertilization (Renshaw et al., 2006; Mahony et al., 2013; Beedie et al., Oncotarget 2016, 7(22):33237). At 72 hpf the dorsal third of the tail fin was removed and the embryos were immersed in the desired compound or vehicle (FIGS. 5A-5C). The embryos were examined for the effect on the inflammatory response quantified as an induction and migration of neutrophils to the wound site 24 hours later.

Another series deals with TNF-α protein. The series can be described thus: TNF-α protein level (ELISA) in LPS-challenged RAW 264.7 cells. The following applies: LPS 30 or 60 ng/mL, 24 h. Further details: key: NS=not significant; a “+” sign=anti-inflammatory or increased cell numbers; a “−” sign=cell toxicity or pro-inflammatory. The series is classed as cell-based, mouse. The gist of the method: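 RAW 264.7 cells pretreated 1 h with compound in DMSO vehicle, then challenged with LPS (30 or 60 ng/mL) for 24 h at 37° C. Conditioned-media nitrite by Griess (520 nm, sodium nitrite standard curve, 1.5 μM cutoff) in μM; mouse TNF-α by ELISA as pg/ml or % change from control.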
(ELISA stands for enzyme-linked immunosorbent assay.)

The next series deals with RAW 264.7 cells. Nature of the series: Cell viability (CellTiter 96 AQueous One) of LPS-challenged RAW 264.7 cells. It counts as cell-based, mouse. Further details: key: NS=not significant; a “+” sign=anti-inflammatory or increased cell numbers; a “−” sign=cell toxicity or pro-inflammatory. In outline:
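RAW 264.7 murine macrophages pretreated 1 h with compound or DMSO vehicle, then challenged with LPS (serotype 055:B5) at 30 or 60 ng/mL final for 24 h. After media replacement, viability measured by tetrazolium (MTS) conversion, absorbance at 490 nm, reported as O.D.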

The structures appear in SMILES notation.

As usually defined, the minimal effective concentration is the smallest amount tested that counted as effective.

Take `O=C1NC(=S)CCC1N1C(=O)c2ccccc2C1=S` (stereo not drawn) [Compound 2, 2,3-dihydro-2-(2-oxo-6-thioxo-3-piperidinyl)-3-thioxo-1H-isoindol-1-one]: in series [1], the minimal effective concentration came out at 10 µg/mL and the “fli1:EGFP angiogenesis n (survived/tested)” value is 21/24. Further, in series [2], the minimal effective concentration is 10 µg/mL and the “mpo:GFP inflammation n (survived/tested)” value is 26/30. Moreover, the “anti-inflammatory activity (inhibition of neutrophil migration)” value in series [2] (in words) is reported as “significant anti-inflammatory action”.

`O=C1NC(=S)CCC1N1C(=O)c2cccc(O)c2C1=O` (stereo not drawn) [Compound 14]: in series [1], the minimal effective concentration turned out to be 10 µg/mL and the “fli1:EGFP angiogenesis n (survived/tested)” value is 7/23. In series [2], the minimal effective concentration came out at 10 µg/mL and the “mpo:GFP inflammation n (survived/tested)” value is listed as 14/24.

Take `O=C1NC(=S)CCC1N1C(=O)c2ccc(O)cc2C1=O` (stereo not drawn) [Compound 17]: in series [1], the minimal effective concentration worked out at 15 µg/mL and the “fli1:EGFP angiogenesis n (survived/tested)” value was 26/50. Besides, in series [2], the minimal effective concentration was 10 µg/mL and the “mpo:GFP inflammation n (survived/tested)” value is listed as 5/5.

In the case of `CC(=O)Oc1ccc2c(c1)C(=O)N(C1CCC(=O)NC1=O)C2=O` (stereo not drawn) [Compound 18], in series [1], the minimal effective concentration came to 50 µg/mL and the “fli1:EGFP angiogenesis n (survived/tested)” value is 24/43. Also, in series [2], the minimal effective concentration was 50 µg/mL and the “mpo:GFP inflammation n (survived/tested)” value is 14/14.

On to `CC(=O)Oc1ccc2c(c1)C(=O)N(C1CCC(=S)NC1=O)C2=O` (stereo not drawn) [Compound 19], for which, in series [1], the minimal effective concentration stood at 1 µg/mL and the “fli1:EGFP angiogenesis n (survived/tested)” value is reported as 13/51. Also, in series [2], the minimal effective concentration is 1 µg/mL and the “mpo:GFP inflammation n (survived/tested)” value is listed as 5/12.

For `O=C1CCC(N2C(=O)c3ccc(OCc4ccccc4)cc3C2=O)C(=O)N1` (stereo not drawn) [Compound 20], in series [1], the minimal effective concentration was 10 µg/mL and the “fli1:EGFP angiogenesis n (survived/tested)” value is 51/79. Besides, in series [2], the minimal effective concentration worked out at 10 µg/mL and the “mpo:GFP inflammation n (survived/tested)” value is given as 8/14.

For `Nc1ccc2c(=O)n(C3CCC(=O)NC3=O)c(=O)oc2c1` (stereo not drawn) [Compound 24], in series [1], the minimal effective concentration turned out to be 50 µg/mL and the “fli1:EGFP angiogenesis n (survived/tested)” value was 13/25. Also, in series [2], the minimal effective concentration was 50 µg/mL and the “mpo:GFP inflammation n (survived/tested)” value is 6/6.

In the case of `Nc1cccc2c1CN(C1CCC(=S)NC1=O)C2=O` (stereo not drawn) [Compound 30], in series [1], the minimal effective concentration worked out at 10 µg/mL and the “fli1:EGFP angiogenesis n (survived/tested)” value is reported as 4/8. In series [2], the minimal effective concentration turned out to be 10 µg/mL and the “mpo:GFP inflammation n (survived/tested)” value is on record as 10/10.

With `Nc1cccc2c1CN(C1CCC(=S)NC1=O)C2=S` (stereo not drawn) [Compound 32], the TNF-α entry with TNF-α protein (3 μM), with TNF-α protein (10 μM) and with TNF-α protein (30 μM) was “+” in each case. The Viability result with RAW 264.7 cells (3 μM), with RAW 264.7 cells (10 μM) and in the series on RAW 264.7 cells (30 μM) was “NS” each time. For the same compound, the figures for the minimal effective concentration in series [1] and in series [2] were 100 µg/mL and 10 µg/mL, respectively. Also, the “fli1:EGFP angiogenesis n (survived/tested)” value in series [1] is 21/25. Further, the “mpo:GFP inflammation n (survived/tested)” value in series [2] is given as 6/15.

As to `O=C1CCC(N2Cc3ccc([N+](=O)[O-])cc3C2=O)C(=O)N1` (stereo not drawn) [Compound 33], in series [1], the minimal effective concentration came to 100 µg/mL and the “fli1:EGFP angiogenesis n (survived/tested)” value is on record as 15/21. Also, in series [2], the minimal effective concentration came to 10 µg/mL and the “mpo:GFP inflammation n (survived/tested)” value is 4/15.

As to `Nc1ccc2c(c1)C(=O)N(C1CCC(=O)NC1=O)C2` (stereo not drawn) [Compound 34], in series [1], the minimal effective concentration is 100 µg/mL and the “fli1:EGFP angiogenesis n (survived/tested)” value is reported as 13/20. Further, in series [2], the minimal effective concentration was determined as 100 µg/mL and the “mpo:GFP inflammation n (survived/tested)” value was 7/9.

As to `CC(C)Nc1ccc2c(c1)C(=O)N(C1CC=CNC1=O)C2` (stereo not drawn) [Compound 46, 6-Isopropylamino-2-(3,4-dihydro-2-pyridone-3-yl)phthalimidine], in series [1], the minimal effective concentration came to 10 µg/mL and the “fli1:EGFP angiogenesis n (survived/tested)” value is reported as 14/30. In series [2], the minimal effective concentration turned out to be 10 µg/mL and the “mpo:GFP inflammation n (survived/tested)” value was 24/50.

Consider `O=C1CCC(N2Cc3ccccc3C2=O)C(=O)N1CN1C(=S)c2ccccc2C1=S` (stereo not drawn) [Compound 51], for which the TNF-α entry with TNF-α protein (1 μM), in the series on TNF-α protein (10 μM) and in the series on TNF-α protein (30 μM) was “+” in each case. Moreover, the Viability entry is reported as “NS” with RAW 264.7 cells (1 μM), “NS” with RAW 264.7 cells (10 μM) and “−” in the series on RAW 264.7 cells (30 μM). In addition, the values for the minimal effective concentration in series [1] and in series [2] were 200 µg/mL and 1 µg/mL, respectively. For the same compound, the “fli1:EGFP angiogenesis n (survived/tested)” value in series [1] was 7/25. For the same compound, in series [1] (exposure from 24 hpf, imaged at 48 hpf), the “concentration at which anti-angiogenic activity was shown” value worked out at 200 µg/mL. Further, the “mpo:GFP inflammation n (survived/tested)” value in series [2] is on record as 4/11.

As to `N=C1N/C(=N\C2CCC(=O)NC2=O)c2ccccc21` (stereo not drawn) [Compound 55], in series [1], the minimal effective concentration worked out at 100 µg/mL and the “fli1:EGFP angiogenesis n (survived/tested)” value is recorded as 6/10. For the same compound, in series [2], the minimal effective concentration was 200 µg/mL and the “mpo:GFP inflammation n (survived/tested)” value is given as 6/11.

For `N=C1c2ccccc2C(=O)N1C1CCC(=O)NC1=O` (stereo not drawn) [Compound 56], in series [1], the minimal effective concentration turned out to be 10 µg/mL and the “fli1:EGFP angiogenesis n (survived/tested)” value is 9/19. Besides, in series [2], the minimal effective concentration was 10 µg/mL and the “mpo:GFP inflammation n (survived/tested)” value is listed as 7/8.

For the compound `O=C1c2cccc([N+](=O)[O-])c2C(=O)N1c1nc2ccc(C(F)(F)F)cc2s1` [Compound 60], in series [1], the minimal effective concentration was 10 µg/mL and the “fli1:EGFP angiogenesis n (survived/tested)” value is listed as 3/10. For the same compound, in series [2], the minimal effective concentration came out at 1 µg/mL and the “mpo:GFP inflammation n (survived/tested)” value is on record as 5/15.
